What was measured:
[1] = target: T1, oxidized phospholipid degrading enzyme (purified enzyme) (Bos taurus, UniProt Q29460); experiment: Substrate specificity of the purified enzyme; assay type: biochemical, bovine
T1 construct: from tissue; host or cells: bovine brain gray matter, soluble cytoplasmic fraction
T1 sequence (Q29460 2-232): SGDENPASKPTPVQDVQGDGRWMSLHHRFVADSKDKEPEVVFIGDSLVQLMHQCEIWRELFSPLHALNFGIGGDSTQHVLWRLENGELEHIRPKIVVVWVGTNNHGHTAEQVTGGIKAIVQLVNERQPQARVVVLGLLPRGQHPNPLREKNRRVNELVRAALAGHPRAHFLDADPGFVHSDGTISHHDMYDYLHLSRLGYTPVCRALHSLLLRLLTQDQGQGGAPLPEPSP
T1 sequence (P68401 2-229 partner limits assumed): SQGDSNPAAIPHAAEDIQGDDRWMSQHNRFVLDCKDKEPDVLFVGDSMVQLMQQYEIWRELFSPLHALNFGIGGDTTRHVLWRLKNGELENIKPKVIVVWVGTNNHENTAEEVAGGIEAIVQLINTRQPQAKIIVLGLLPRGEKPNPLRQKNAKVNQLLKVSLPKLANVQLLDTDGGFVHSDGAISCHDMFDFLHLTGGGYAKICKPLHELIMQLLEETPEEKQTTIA
T1 sequence (P43033 2-410 A26E/E154Q partner limits assumed): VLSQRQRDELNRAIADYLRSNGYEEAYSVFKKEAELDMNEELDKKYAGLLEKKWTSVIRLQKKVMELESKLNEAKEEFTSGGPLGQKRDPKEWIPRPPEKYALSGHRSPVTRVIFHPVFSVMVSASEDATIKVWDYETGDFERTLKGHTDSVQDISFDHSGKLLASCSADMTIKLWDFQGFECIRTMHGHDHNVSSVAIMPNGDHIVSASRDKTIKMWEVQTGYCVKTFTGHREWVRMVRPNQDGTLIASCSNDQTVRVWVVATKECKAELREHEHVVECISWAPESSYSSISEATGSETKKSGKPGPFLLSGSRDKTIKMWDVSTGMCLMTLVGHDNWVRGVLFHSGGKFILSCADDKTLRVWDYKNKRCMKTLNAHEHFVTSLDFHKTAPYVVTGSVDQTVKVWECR
Protocol: (§1) They were mixed in a test tube over ice and then incubated at 37° C. for 30 minutes. Thereafter, 560 μl of a chloroform-methanol (1:1) mixture were added to terminate the reaction. After the resulting mixture was vigorously mixed for 5 minutes by a vortex stirrer, the mixture was centrifuged for 5 minutes at 3,000 rpm to separate it into two layers. From the upper layer, 300 μl were collected, in which 3 ml of "Clearsol I" (product of NACALAI TESQUE INC.) were mixed. The radioactivity was measured by a liquid scintillation counter. From the intensity of the radioactivity, the amount of the dicarboxylic acid formed as a result of 2-hydrolysis was calculated to determine the enzyme activity.
(§2) Namely, Tris-HCl buffer (final concentration: 50 mM, pH 7.4) which contained as a substrate 20 nmol (6,000 dpm) of the labeled PAF obtained in step (a) was added with 5 mM EDTA or 4 mM CaCl2 as needed, to which the sample (enzyme source) to be measured was added to give a total volume of 250 μl.
as §1, with “2.5 ml” for “560 μl”, “(4:1)” for “(1:1)”, “Subsequent to addition of 0.25 ml of water,” for “After”, “stirrer and then” for “stirrer, the mixture was”, “600” for “300”, “acetic” for “the dicarboxylic”

[2] = target: T1, oxidized phospholipid degrading enzyme (purified enzyme); experiment: biochemical; set-up: species or system bovine
[3] = tested on: oxidized phospholipid degrading enzyme; experiment: Influence of calcium ions on the enzyme activity; assay type: biochemical, bovine; conditions: 4 mM calcium chloride
Protocol: as §2, with “Measurement of the oxidized phospholipid degrading enzyme by using PAF was conducted in a similar manner to Reference Example 2. Namely,” for “Namely,”
as §1, with “2.5 ml” for “560 μl”, “(4:1)” for “(1:1)”, “Subsequent to addition of 0.25 ml of water,” for “After”, “stirrer and then” for “stirrer, the mixture was”, “600” for “300”, “acetic” for “the dicarboxylic”
The enzyme activity was measured by the measuring method of Reference Example 3 except that 4 mM CaCl2 was added instead of 5 mM of EDTA.

[4] = target: T2, 30 kDa-29 kDa complex without the 45 kDa subunit (bovine); experiment: co-purification of the native enzyme; gel filtration and SDS-PAGE
T2 chain 1: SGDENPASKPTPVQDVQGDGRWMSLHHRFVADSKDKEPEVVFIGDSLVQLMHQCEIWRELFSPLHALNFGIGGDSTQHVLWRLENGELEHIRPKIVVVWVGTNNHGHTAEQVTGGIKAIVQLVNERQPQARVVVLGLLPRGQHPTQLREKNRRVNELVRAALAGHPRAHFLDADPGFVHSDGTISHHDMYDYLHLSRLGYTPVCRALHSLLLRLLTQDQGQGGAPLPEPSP
T2 chain 2: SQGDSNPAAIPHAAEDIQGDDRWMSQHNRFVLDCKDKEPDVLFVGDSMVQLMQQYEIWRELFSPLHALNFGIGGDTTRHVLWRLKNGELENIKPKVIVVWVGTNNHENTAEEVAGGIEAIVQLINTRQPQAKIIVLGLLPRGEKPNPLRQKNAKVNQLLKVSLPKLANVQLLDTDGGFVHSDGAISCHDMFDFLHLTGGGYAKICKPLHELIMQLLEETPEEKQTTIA

[5] = target: T3, 30 kDa subunit of the oxidized phospholipid degrading enzyme (bovine); experiment: heparin Sepharose or sulfated Cellulofine column treatment of the native enzyme
T3 chain: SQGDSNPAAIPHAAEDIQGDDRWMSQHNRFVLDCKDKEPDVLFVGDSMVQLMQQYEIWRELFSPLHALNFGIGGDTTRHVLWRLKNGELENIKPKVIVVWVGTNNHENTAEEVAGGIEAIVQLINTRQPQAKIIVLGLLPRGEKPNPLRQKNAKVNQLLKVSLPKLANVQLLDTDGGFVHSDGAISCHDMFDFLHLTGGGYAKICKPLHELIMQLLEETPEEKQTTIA
Protocol: Against buffer A, 15 ml of the roughly purified fraction obtained in step (e) of Example 1 were dialyzed. The solution so dialyzed was then applied to a column (1×5 cm) of "heparin Sepharose" (product of Pharmacia AB) which had been equilibrated with buffer A, whereby about 80% of the enzyme activity passed through the column without adsorption. When the column was washed with buffer A subsequent to the passage of the dialyzed solution, the activity was gradually eluted with tailing.
After the column was washed with about 30 ml of buffer A, the enzyme was eluted with a 30 ml linear gradient of NaCl (0M to 1.5M) in buffer A. The enzyme activity was eluted around about 0.3M NaCl concentration. […] Further, the fractions eluted around about 0.6M NaCl concentration gave only one spot at 45 kDa.

[6] = in the presence of 4 mM CaCl2, method of Dole et al.

For `CCCCCCCCCCCCCCCCOC[C@H](COP(=O)([O-])OCC[N+](C)(C)C)OC(C)=O` [PAF, 1-hexadecyl-2-acetyl-sn-glycero-3-phospho-choline], the “Degrading activity / hydrolysis by the enzyme (in words)” value (shortened to “Degrading activity / hydrolysis”) [1] was “shows degrading activity” and the Specific activity ([1]; method of Reference Examples 2 and 3) was 1.45 nmol/min/mg.

For `O=C(CBr)c1ccc(Br)cc1` [BPB, p-bromophenacyl bromide], the “Inhibition of enzyme reactions (in words)” value [2] was “inhibited”, the “Inhibition of the purified enzyme (in words, summary of Table 3)” value [2] was “inhibited” and the inhibition at 100 µM [2] was 20%. For the same molecule, the inhibition at 1000 µM [2] was 97%.

In the case of phosphatidylethanolamine [PE], the “Degrading activity / hydrolysis” value [1] is reported as “does not show any degrading activity” and the Specific activity [1, 6] is reported as “Not degraded”.

For `NC(=O)CI` [IAM, iodoacetamide], the “Inhibition of enzyme reactions (in words)” value [2] was “not inhibited”, the “Inhibition of the purified enzyme (in words, summary of Table 3)” value [2] was “not inhibited at all” and the inhibition at 100 µM [2] was 0%. The inhibition at 1000 µM [2] was 0%.

With `CCCCCCCCCCCCCCCC(=O)OC[C@@H](O)COP(=O)([O-])OCC[N+](C)(C)C` [Lyso PC, 1-palmitoyl-sn-glycero-3-phosphocholine] the “Degrading activity / hydrolysis” value [1] was “absolutely no degrading activity” and the Specific activity [1, 6] was “Not degraded”.

For `[Ca+2].[Cl-].[Cl-]` [CaCl2, calcium chloride], the “Enhancement of enzyme activity (in words)” value [3] was “slightly enhanced”.

B1: 45 kDa subunit of the oxidized phospholipid degrading enzyme (other)
chain: VLSQRQRDELNRAIADYLRSNGYEEAYSVFKKEAELDMNEELDKKYAGLLEKKWTSVIRLQKKVMELESKLNEAKEEFTSGGPLGQKRDPKEWIPRPPEKYALSGHRSPVTRVIFHPVFSVMVSASEDATIKVWDYETGDFERTLKGHTDSVQDISFDHSGKLLASCSADMTIKLWDFQGFECIRTMHGHDHNVSSVAIMPNGDHIVSASRDKTIKMWEVQTGYCVKTFTGHREWVRMVRPNQDGTLIASCSNDQTVRVWVVATKECKAELREHEHVVECISWAPESSYSSISEATGSETKKSGKPGPFLLSGSRDKTIKMWDVSTGMCLMTLVGHDNWVRGVLFHSGGKFILSCADDKTLRVWDYKNKRCMKTLNAHEHFVTSLDFHKTAPYVVTGSVDQTVKVWECR
B1: binds [4].

B2: 29 kDa subunit of the oxidized phospholipid degrading enzyme (enzyme)
chain: SGDENPASKPTPVQDVQGDGRWMSLHHRFVADSKDKEPEVVFIGDSLVQLMHQCEIWRELFSPLHALNFGIGGDSTQHVLWRLENGELEHIRPKIVVVWVGTNNHGHTAEQVTGGIKAIVQLVNERQPQARVVVLGLLPRGQHPTQLREKNRRVNELVRAALAGHPRAHFLDADPGFVHSDGTISHHDMYDYLHLSRLGYTPVCRALHSLLLRLLTQDQGQGGAPLPEPSP
B2: binds [5].

— patent US5849557A, “Oxidized phospholipid degrading enzyme and gene thereof” (Suntory Limited, priority 1993, dated 1998)
